Experimental data as given in US8574831B2, “Mutational profiles in HIV-1 reverse transcriptase correlated with phenotypic drug resistance” (Virco N.V., priority 2000, dated 2013).

Test system: HIV with mutations in the HIV protease sequence
Assay: Phenotypic fold resistance to protease inhibitors, protease mutations 84A/84L/84C/54M/54L/54V in a background (Examples 8-13)
Assay type: cell-based, HIV-1
Summary of the method: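 Recombinant-virus phenotyping: patient-derived PR/RT sequences amplified by PCR and recombined in CD4+ T cells into an HXB2 proviral clone deleted for those sequences. Chimeric viruses grown across drug concentrations; IC50 determined, and fold-resistance expressed as IC50 ratio versus wild-type susceptible laboratory HIV-1 tested in parallel.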

`CC(C)c1nc(CN(C)C(=O)N[C@H](C(=O)N[C@@H](Cc2ccccc2)C[C@H](O)[C@H](Cc2ccccc2)NC(=O)OCc2cncs2)C(C)C)cs1` [Ritonavir, ritonavir] was tested. Which “Fold change in IC50” value (Table 12, V055199, genotype 10I + 33F + 54M + 90M) did it give?
Its value is 18.4 fold.

And the “Fold change in IC50” value (Table 13, V19263, genotype 77I)?
The value was 0.4 fold.

What about the “Fold change in IC50” value (Table 13, V20160, genotype WT) of the same molecule?
The value was 0.6 fold.

And the “Fold change in IC50” value (Table 13, V021667, genotype 10I)?
The value was 1.2 fold.

And the “Fold change in IC50” value (Table 13, V030496, genotype 10I + 77I)?
The value was 0.5 fold.

What about the “Fold change in IC50” value (Table 13, V048868, genotype 10I + 54L + 71V + 77I + 90M) of the same molecule?
Its value is 9.7 fold.

What about the “Fold change in IC50” value (Table 13, V048874, genotype 10I + 33F + 54L + 71V + 77I + 90M) of the same molecule?
The value was 21.3 fold.

What about the “Fold change in IC50” value (Table 13, V048875, genotype 10I + 33F + 54L + 71V + 77I + 90M) of the same molecule?
Its value is 25.1 fold.

And the “Fold change in IC50” value (Table 13, V048877, genotype 10I + 33F + 77I + 90M)?
Its value is 20.5 fold.

And the “Fold change in IC50” value (Table 13, V048880, genotype 10I + 33F + 77I + 90M)?
The value was 3.6 fold.

What about the “Fold change in IC50” value (Table 13, V052940, genotype 71V) of the same molecule?
Its value is 0.4 fold.

What about the “Fold change in IC50” value (Table 13, V052942, genotype 10I + 71V) of the same molecule?
Its value is 0.6 fold.

What about the “Fold change in IC50” value (Table 13, V052943, genotype 10I + 90M) of the same molecule?
The value was 1.8 fold.

What about the “Fold change in IC50” value (Table 13, V052944, genotype 10I + 90M) of the same molecule?
The value was 1.5 fold.

And the “Fold change in IC50” value (Table 13, V052945, genotype 77I + 90M)?
Its value is 1.9 fold.

What about the “Fold change in IC50” value (Table 13, V052946, genotype 71V + 90M) of the same molecule?
The value was 2.0 fold.

And the “Fold change in IC50” value (Table 13, V052947, genotype 10I + 77I + 90M)?
Its value is 6.9 fold.

What about the “Fold change in IC50” value (Table 13, V052948, genotype 10I + 71V + 90M) of the same molecule?
Its value is 10.5 fold.

And the “Fold change in IC50” value (Table 13, V052949, genotype 10I + 71V + 77I + 90M)?
The value was 2.3 fold.

What about the “Fold change in IC50” value (Table 13, V052950, genotype 33F) of the same molecule?
The value was 1.5 fold.

And the “Fold change in IC50” value (Table 13, V052951, genotype 33F + 77I)?
The value was 0.3 fold.

What about the “Fold change in IC50” value (Table 13, V052953, genotype 10I + 33F + 77I) of the same molecule?
Its value is 1.1 fold.

What about the “Fold change in IC50” value (Table 13, V052954, genotype 33F + 77I + 90M) of the same molecule?
Its value is 2.2 fold.

What about the “Fold change in IC50” value (Table 13, V052955, genotype 33F + 71V + 90M) of the same molecule?
Its value is 77.9 fold.

And the “Fold change in IC50” value (Table 13, V052968, genotype 10L/I + 33F/L + 54L + 77I)?
Its value is 4.7 fold.

What about the “Fold change in IC50” value (Table 13, V052969, genotype 10I + 33F + 54L + 90M) of the same molecule?
The value was 4.8 fold.

What about the “Fold change in IC50” value (Table 13, V052970, genotype 54L) of the same molecule?
The value was 2.0 fold.

And the “Fold change in IC50” value (Table 13, V052971, genotype 10I + 54L)?
The value was 1.5 fold.

What about the “Fold change in IC50” value (Table 13, V052972, genotype 54L + 77I) of the same molecule?
The value was 2.4 fold.

What about the “Fold change in IC50” value (Table 13, V052973, genotype 10I + 54L + 77I) of the same molecule?
Its value is 1.4 fold.

And the “Fold change in IC50” value (Table 13, V052974, genotype 10I + 54L + 90M)?
The value was 3.6 fold.

What about the “Fold change in IC50” value (Table 13, V052975, genotype 10I + 54L + 71V + 90M) of the same molecule?
Its value is 30.5 fold.

And the “Fold change in IC50” value (Table 13, V052976, genotype 10I + 54L + 71V + 77I + 90M)?
The value was 6.5 fold.

And the “Fold change in IC50” value (Table 13, V053832, genotype 10I + 33F)?
The value was 2.9 fold.

And the “Fold change in IC50” value (Table 13, V053854, genotype 54L + 71V)?
The value was 2.3 fold.

And the “Fold change in IC50” value (Virco ID 214846, genotype 10I + 33F + 54V + 71V + 77I + 90M, vs mean IC50 of wild type laboratory HIV strain)?
Its value is 57.6 fold.

And the “Fold change in IC50” value (Virco ID V021667, genotype 10I, vs mean IC50 of wild type laboratory HIV strain)?
The value was 1.2 fold.

What about the “Fold change in IC50” value (Virco ID V030496, genotype 10I + 77I, vs mean IC50 of wild type laboratory HIV strain) of the same molecule?
The value was 0.5 fold.

And the “Fold change in IC50” value (Virco ID V048876, genotype 33F + 54V + 77I + 90M, vs mean IC50 of wild type laboratory HIV strain)?
Its value is 5.6 fold.

What about the “Fold change in IC50” value (Virco ID V048877, genotype 10I + 33F + 77I + 90M, vs mean IC50 of wild type laboratory HIV strain) of the same molecule?
Its value is 20.5 fold.

What about the “Fold change in IC50” value (Virco ID V048880, genotype 10I + 33F + 77I + 90M, vs mean IC50 of wild type laboratory HIV strain) of the same molecule?
Its value is 3.6 fold.

What about the “Fold change in IC50” value (Virco ID V052940, genotype 71V, vs mean IC50 of wild type laboratory HIV strain) of the same molecule?
The value was 0.4 fold.

And the “Fold change in IC50” value (Virco ID V052942, genotype 10I + 71V, vs mean IC50 of wild type laboratory HIV strain)?
The value was 0.6 fold.

And the “Fold change in IC50” value (Virco ID V052943, genotype 10I + 90M, vs mean IC50 of wild type laboratory HIV strain)?
The value was 1.8 fold.

And the “Fold change in IC50” value (Virco ID V052944, genotype 10I + 90M, vs mean IC50 of wild type laboratory HIV strain)?
Its value is 1.5 fold.

What about the “Fold change in IC50” value (Virco ID V052946, genotype 71V + 90M, vs mean IC50 of wild type laboratory HIV strain) of the same molecule?
The value was 2.0 fold.

What about the “Fold change in IC50” value (Virco ID V052947, genotype 10I + 77I + 90M, vs mean IC50 of wild type laboratory HIV strain) of the same molecule?
The value was 6.9 fold.

And the “Fold change in IC50” value (Virco ID V052948, genotype 10I + 71V + 90M, vs mean IC50 of wild type laboratory HIV strain)?
Its value is 10.5 fold.

What about the “Fold change in IC50” value (Virco ID V052949, genotype 10I + 71V + 77I + 90M, vs mean IC50 of wild type laboratory HIV strain) of the same molecule?
Its value is 2.3 fold.

What about the “Fold change in IC50” value (Virco ID V052950, genotype 33F, vs mean IC50 of wild type laboratory HIV strain) of the same molecule?
Its value is 1.5 fold.

And the “Fold change in IC50” value (Virco ID V052951, genotype 33F + 77I, vs mean IC50 of wild type laboratory HIV strain)?
Its value is 0.3 fold.

What about the “Fold change in IC50” value (Virco ID V052953, genotype 10I + 33F + 77I, vs mean IC50 of wild type laboratory HIV strain) of the same molecule?
Its value is 1.1 fold.

And the “Fold change in IC50” value (Virco ID V052954, genotype 33F + 77I + 90M, vs mean IC50 of wild type laboratory HIV strain)?
Its value is 2.2 fold.

And the “Fold change in IC50” value (Virco ID V052955, genotype 33F + 71V + 90M, vs mean IC50 of wild type laboratory HIV strain)?
Its value is 77.9 fold.

And the “Fold change in IC50” value (Virco ID V052957, genotype 10I + 33F + 54V + 90M, vs mean IC50 of wild type laboratory HIV strain)?
The value was 13.9 fold.

What about the “Fold change in IC50” value (Virco ID V052958, genotype 10I + 33F + 54V + 77I + 90M, vs mean IC50 of wild type laboratory HIV strain) of the same molecule?
The value was 16.6 fold.

What about the “Fold change in IC50” value (Virco ID V052959, genotype 10I + 33F + 54V + 77I + 90M, vs mean IC50 of wild type laboratory HIV strain) of the same molecule?
Its value is 28.5 fold.

What about the “Fold change in IC50” value (Virco ID V052960, genotype 10I + 33F + 54V + 71V + 90M, vs mean IC50 of wild type laboratory HIV strain) of the same molecule?
The value was 70.9 fold.

And the “Fold change in IC50” value (Virco ID V052961, genotype 54V, vs mean IC50 of wild type laboratory HIV strain)?
The value was 1.2 fold.

And the “Fold change in IC50” value (Virco ID V052962, genotype 10I + 54V, vs mean IC50 of wild type laboratory HIV strain)?
The value was 1.0 fold.

And the “Fold change in IC50” value (Virco ID V052963, genotype 54V + 77I + 90M, vs mean IC50 of wild type laboratory HIV strain)?
Its value is 2.0 fold.

What about the “Fold change in IC50” value (Virco ID V052964, genotype 54V + 71V + 90M, vs mean IC50 of wild type laboratory HIV strain) of the same molecule?
Its value is 7.1 fold.

What about the “Fold change in IC50” value (Virco ID V052965, genotype 10I + 54V + 77I + 90M, vs mean IC50 of wild type laboratory HIV strain) of the same molecule?
Its value is 12.5 fold.

What about the “Fold change in IC50” value (Virco ID V052966, genotype 10I + 54V + 71V + 90M, vs mean IC50 of wild type laboratory HIV strain) of the same molecule?
Its value is 44.5 fold.

What about the “Fold change in IC50” value (Virco ID V052967, genotype 10I + 54V + 71V + 77I + 90M, vs mean IC50 of wild type laboratory HIV strain) of the same molecule?
The value was 0.7 fold.

And the “Fold change in IC50” value (Virco ID V053358, genotype 33F + 54V + 77I + 90M, vs mean IC50 of wild type laboratory HIV strain)?
The value was 4.9 fold.

What about the “Fold change in IC50” value (Virco ID V053831, genotype 33F + 54V, vs mean IC50 of wild type laboratory HIV strain) of the same molecule?
The value was 129.7 fold.

And the “Fold change in IC50” value (Virco ID V053832, genotype 10I + 33F, vs mean IC50 of wild type laboratory HIV strain)?
The value was 2.9 fold.
